Earlier results on one compound are cited in US20050049268A1, “Use of at least one abl, kit and/or platelet-derived growth factor receptor tyrosine kinases inhibitor for treating hair depigmentation” (priority 2001, published 2005).

Among the targets are c-Met (Homo sapiens, UniProt P08581); β-PDGF receptor (Homo sapiens, UniProt P09619); Jak-2 (Homo sapiens, UniProt O60674); α-PDGF receptor (Homo sapiens, UniProt P16234).
Data set [1] deals with platelet-derived growth factor (PDGF) receptor tyrosine kinases. The note with it: in vitro.
For data set [2], the target named is receptor for stem cell factor (Homo sapiens, UniProt P10721).
receptor for stem cell factor, sequence (P10721 26-976): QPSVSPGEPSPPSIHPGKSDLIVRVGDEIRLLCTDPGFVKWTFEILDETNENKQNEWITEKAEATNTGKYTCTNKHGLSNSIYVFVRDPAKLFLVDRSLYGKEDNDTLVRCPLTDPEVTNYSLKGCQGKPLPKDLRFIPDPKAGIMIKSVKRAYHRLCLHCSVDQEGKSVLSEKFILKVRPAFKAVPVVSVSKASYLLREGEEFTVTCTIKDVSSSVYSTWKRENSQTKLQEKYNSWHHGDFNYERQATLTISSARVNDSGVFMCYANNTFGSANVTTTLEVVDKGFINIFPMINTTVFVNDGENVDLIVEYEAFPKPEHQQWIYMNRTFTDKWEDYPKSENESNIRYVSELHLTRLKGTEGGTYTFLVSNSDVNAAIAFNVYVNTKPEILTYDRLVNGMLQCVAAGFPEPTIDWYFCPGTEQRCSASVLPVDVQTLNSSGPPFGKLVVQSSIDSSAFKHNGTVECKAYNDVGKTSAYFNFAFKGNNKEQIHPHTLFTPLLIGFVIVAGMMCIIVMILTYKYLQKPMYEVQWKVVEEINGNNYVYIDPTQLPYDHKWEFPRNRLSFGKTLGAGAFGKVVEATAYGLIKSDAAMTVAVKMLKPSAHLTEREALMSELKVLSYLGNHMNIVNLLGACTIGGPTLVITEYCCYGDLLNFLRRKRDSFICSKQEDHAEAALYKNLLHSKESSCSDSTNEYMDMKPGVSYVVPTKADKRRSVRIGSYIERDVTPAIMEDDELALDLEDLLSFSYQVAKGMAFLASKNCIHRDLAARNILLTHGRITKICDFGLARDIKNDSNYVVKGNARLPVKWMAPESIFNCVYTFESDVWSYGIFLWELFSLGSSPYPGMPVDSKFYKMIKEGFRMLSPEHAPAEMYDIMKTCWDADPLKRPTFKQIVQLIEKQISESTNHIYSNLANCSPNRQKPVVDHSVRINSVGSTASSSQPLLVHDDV

SMILES strings stand for the structures.

c-Met, sequence (P08581 25-1390): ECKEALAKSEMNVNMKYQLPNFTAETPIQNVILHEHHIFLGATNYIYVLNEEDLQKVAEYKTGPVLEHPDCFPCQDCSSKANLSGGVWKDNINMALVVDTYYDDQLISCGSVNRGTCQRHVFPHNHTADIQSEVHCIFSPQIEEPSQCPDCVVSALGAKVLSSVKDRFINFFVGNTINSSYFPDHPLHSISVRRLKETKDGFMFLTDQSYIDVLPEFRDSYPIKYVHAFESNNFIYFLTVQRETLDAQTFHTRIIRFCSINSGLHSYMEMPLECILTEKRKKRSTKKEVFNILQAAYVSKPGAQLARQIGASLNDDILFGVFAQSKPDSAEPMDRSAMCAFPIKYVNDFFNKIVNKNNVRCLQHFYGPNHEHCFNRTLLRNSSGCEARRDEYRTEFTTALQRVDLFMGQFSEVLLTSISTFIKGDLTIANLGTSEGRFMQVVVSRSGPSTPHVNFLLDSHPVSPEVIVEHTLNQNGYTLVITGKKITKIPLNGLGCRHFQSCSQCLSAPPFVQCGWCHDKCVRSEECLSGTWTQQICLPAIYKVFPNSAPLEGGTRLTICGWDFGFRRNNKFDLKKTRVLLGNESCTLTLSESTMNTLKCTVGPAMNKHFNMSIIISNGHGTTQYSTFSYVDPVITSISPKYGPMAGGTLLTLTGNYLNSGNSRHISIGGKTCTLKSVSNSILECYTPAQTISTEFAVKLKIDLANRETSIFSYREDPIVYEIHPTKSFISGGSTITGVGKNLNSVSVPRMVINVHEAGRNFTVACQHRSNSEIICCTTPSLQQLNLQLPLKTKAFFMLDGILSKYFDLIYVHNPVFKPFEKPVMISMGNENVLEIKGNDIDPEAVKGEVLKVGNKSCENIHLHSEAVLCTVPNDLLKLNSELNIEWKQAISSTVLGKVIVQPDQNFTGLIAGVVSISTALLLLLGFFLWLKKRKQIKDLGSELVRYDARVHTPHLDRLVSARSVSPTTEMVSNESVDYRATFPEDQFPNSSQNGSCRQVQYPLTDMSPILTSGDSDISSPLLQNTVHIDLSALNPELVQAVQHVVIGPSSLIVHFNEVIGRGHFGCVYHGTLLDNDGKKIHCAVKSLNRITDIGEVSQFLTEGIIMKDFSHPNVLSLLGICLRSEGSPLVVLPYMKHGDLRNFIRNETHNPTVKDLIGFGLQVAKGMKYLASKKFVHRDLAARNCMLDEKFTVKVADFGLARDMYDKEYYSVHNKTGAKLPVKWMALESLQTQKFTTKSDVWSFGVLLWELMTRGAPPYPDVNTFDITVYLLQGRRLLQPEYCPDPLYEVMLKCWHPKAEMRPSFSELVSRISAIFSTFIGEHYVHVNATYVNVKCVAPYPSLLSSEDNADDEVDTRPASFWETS
Jak-2, sequence (O60674 whole entry, species assumed): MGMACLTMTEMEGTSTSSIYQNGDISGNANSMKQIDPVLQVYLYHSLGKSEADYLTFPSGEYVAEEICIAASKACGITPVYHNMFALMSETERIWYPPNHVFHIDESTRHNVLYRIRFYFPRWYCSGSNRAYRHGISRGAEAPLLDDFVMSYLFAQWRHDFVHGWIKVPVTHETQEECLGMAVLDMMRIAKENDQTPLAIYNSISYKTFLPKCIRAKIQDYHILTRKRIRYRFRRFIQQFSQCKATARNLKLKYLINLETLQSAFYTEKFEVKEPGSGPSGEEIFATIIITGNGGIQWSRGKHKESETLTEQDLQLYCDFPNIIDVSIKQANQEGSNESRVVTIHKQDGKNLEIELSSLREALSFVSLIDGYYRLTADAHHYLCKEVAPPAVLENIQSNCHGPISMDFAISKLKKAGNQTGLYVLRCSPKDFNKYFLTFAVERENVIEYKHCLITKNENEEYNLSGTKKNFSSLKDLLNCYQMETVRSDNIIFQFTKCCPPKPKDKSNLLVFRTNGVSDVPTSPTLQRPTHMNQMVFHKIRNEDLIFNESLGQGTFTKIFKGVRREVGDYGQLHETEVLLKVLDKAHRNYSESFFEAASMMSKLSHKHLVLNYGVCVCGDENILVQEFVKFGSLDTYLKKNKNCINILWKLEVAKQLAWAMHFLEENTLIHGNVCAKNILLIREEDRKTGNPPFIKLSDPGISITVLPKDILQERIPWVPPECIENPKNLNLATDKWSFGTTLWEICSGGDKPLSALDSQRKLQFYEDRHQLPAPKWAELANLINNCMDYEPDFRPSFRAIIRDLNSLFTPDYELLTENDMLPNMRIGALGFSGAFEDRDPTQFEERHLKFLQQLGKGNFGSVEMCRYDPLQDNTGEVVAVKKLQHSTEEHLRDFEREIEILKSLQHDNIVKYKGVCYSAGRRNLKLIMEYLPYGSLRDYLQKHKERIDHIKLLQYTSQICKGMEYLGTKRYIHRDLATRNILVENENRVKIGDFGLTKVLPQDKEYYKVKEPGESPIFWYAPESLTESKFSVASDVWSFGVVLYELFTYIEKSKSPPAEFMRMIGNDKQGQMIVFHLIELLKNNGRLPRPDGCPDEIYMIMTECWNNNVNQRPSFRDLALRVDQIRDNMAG
α-PDGF receptor, sequence (P16234 24-1089): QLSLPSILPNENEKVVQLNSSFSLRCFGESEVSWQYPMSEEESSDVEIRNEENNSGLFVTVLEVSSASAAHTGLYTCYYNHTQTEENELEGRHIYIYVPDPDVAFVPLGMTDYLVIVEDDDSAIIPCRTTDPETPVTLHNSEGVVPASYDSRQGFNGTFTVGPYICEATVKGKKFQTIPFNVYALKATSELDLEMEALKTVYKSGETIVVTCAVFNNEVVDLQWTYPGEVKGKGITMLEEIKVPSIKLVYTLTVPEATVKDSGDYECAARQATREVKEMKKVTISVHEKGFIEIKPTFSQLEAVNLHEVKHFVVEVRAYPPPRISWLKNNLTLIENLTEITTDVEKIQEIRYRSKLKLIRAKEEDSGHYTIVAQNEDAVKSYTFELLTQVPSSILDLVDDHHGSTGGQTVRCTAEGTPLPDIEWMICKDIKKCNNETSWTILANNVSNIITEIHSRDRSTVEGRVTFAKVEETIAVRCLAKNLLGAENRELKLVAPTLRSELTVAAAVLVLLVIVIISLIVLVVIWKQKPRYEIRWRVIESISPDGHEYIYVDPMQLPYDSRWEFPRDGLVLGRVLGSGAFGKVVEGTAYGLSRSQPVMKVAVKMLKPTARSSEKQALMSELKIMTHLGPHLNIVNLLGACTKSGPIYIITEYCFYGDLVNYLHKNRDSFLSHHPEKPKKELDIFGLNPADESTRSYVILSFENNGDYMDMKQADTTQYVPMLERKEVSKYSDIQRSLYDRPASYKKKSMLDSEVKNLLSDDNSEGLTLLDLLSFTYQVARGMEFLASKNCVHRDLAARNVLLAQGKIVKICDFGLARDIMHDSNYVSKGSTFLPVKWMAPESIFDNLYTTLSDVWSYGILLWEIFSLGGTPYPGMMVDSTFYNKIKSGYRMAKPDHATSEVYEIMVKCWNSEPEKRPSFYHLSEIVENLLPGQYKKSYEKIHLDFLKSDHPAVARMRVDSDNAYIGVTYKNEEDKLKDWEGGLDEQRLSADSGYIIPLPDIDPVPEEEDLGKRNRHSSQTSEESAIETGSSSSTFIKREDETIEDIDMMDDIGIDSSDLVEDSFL

On to `Cc1ccc(NC(=O)c2ccc(CN3CCN(C)CC3)cc2)cc1Nc1nccc(-c2cccnc2)n1` [Imatinib, N-{5-[4-(4-methyl-piperazino-methyl)-benzoylamido]-2-methylphenyl}-4-(3-pyridyl)-2-pyrimidine-amine], for which the “inhibition of c-Met” value at c-Met is recorded as “no inhibition”. Moreover, the “inhibition of PDGF receptor tyrosine kinases” value in data set [1] is recorded as “selectively inhibits”. Moreover, the “inhibition of kinase activity of the receptor for stem cell factor” value in data set [2] was “potently inhibit”. The “inhibition of kinase activity of β-PDGF receptor” value on β-PDGF receptor was “potently inhibit”. The “inhibition of Jak-2” value on Jak-2 was “no inhibition”. At α-PDGF receptor, the “inhibition of kinase activity of α-PDGF receptor” value was “potently inhibit”.
